Assay results as given in ChEMBL document CHEMBL1201862, “PubChem BioAssay data set” (2004).
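Each compound was tested at five concentrations against cells in 96-well plates for 48 hours. GI50 = concentration required for 50% inhibition of growth.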 The source made the active and inactive calls. Cut-off read from the data, not from the text of the source: active = GI50 up to about 1.1 µM and inactive = higher.

Tests used:
Assay in all cases: NCI anticancer screen, dose series, 48 h
HL-60 = tested on: HL-60
HOP-62 = tested on: HOP-62
M14 = tested on: M14
OVCAR-3 = tested on: OVCAR-3
LOX IMVI = tested on: LOX IMVI
RXF 393 = tested on: RXF 393
UACC-257 = tested on: UACC-257
OVCAR-5 = tested on: OVCAR-5
HCT-116 = tested on: HCT-116
HCC 2998 = tested on: HCC 2998
K562 = tested on: K562
SK-MEL-28 = tested on: SK-MEL-28
SNB-75 = tested on: SNB-75
UO-31 = tested on: UO-31
EKVX = tested on: EKVX
NCI-H460 = tested on: NCI-H460
CAKI-1 = tested on: CAKI-1

Measured: GI50

Cc1ccc(S(=O)(=O)n2c(-c3ccccc3)c(-c3ccccc3)c3ccccc32)cc1
inactive: HL-60 > 100 µM | HOP-62 > 100 µM | M14 > 100 µM | OVCAR-3 > 100 µM | LOX IMVI > 100 µM | RXF 393 > 100 µM | UACC-257 > 100 µM | OVCAR-5 > 100 µM | HCT-116 > 100 µM | HCC 2998 > 100 µM | K562 64.9 µM | SK-MEL-28 > 100 µM | SNB-75 > 100 µM | UO-31 > 100 µM | EKVX > 100 µM | NCI-H460 > 100 µM

CCOC(=O)C1Sc2ccccc2N=C1C (stereo unspecified)
inactive: HL-60 > 100 µM | HOP-62 > 100 µM | OVCAR-3 > 100 µM | LOX IMVI > 100 µM | RXF 393 > 100 µM | UACC-257 > 100 µM | OVCAR-5 > 100 µM | HCT-116 > 100 µM | HCC 2998 > 100 µM | K562 > 100 µM | SK-MEL-28 > 100 µM | SNB-75 > 100 µM | UO-31 > 100 µM | EKVX > 100 µM | NCI-H460 > 100 µM

O=C(CCc1n[nH]c(=S)o1)Nc1cc(Cl)c(Cl)cc1Cl
inactive: HL-60 33.3 µM | HOP-62 50.8 µM | M14 83.6 µM | OVCAR-3 41.8 µM | UACC-257 > 100 µM | OVCAR-5 54.3 µM | HCT-116 15.9 µM | HCC 2998 > 100 µM | CAKI-1 27.2 µM | K562 18.9 µM | SK-MEL-28 60.1 µM | SNB-75 89.1 µM | UO-31 68.2 µM | EKVX 36.9 µM | NCI-H460 46.6 µM

CC(C)CC(NC(=O)OC(C)(C)C)C(=O)Nc1ccc(Nc2nc(F)nc(-c3c4ccccc4c4n3CCS4)n2)cc1 (stereo unspecified)
inactive: HL-60 21.9 µM | HOP-62 21.2 µM | M14 20.2 µM | OVCAR-3 20.3 µM | RXF 393 34 µM | UACC-257 23.6 µM | OVCAR-5 22.4 µM | HCT-116 23.5 µM | HCC 2998 18 µM | CAKI-1 18.2 µM | K562 26.8 µM | SK-MEL-28 23.5 µM | SNB-75 22.2 µM | UO-31 19.7 µM | EKVX 19.7 µM | NCI-H460 14.8 µM

O=C(COc1ccccc1Cl)N1N=C(c2ccc(Cl)cc2)CC1(O)c1ccccc1 (stereo unspecified)
inactive: HL-60 > 100 µM | HOP-62 > 100 µM | M14 > 100 µM | OVCAR-3 > 100 µM | LOX IMVI > 100 µM | UACC-257 > 100 µM | OVCAR-5 > 100 µM | HCT-116 > 100 µM | HCC 2998 > 100 µM | CAKI-1 > 100 µM | K562 > 100 µM | SK-MEL-28 > 100 µM | SNB-75 > 100 µM | UO-31 > 100 µM | NCI-H460 > 100 µM

COc1cc(C(C#N)NNc2nc(C)cc(O)n2)cc(OC)c1OC (stereo unspecified)
inactive: HL-60 > 100 µM | HOP-62 > 100 µM | M14 > 100 µM | OVCAR-3 > 100 µM | LOX IMVI > 100 µM | RXF 393 > 100 µM | UACC-257 > 100 µM | OVCAR-5 > 100 µM | HCT-116 > 100 µM | CAKI-1 > 100 µM | K562 > 100 µM | SK-MEL-28 > 100 µM | SNB-75 37.2 µM | UO-31 75 µM | NCI-H460 > 100 µM

CCOc1ccc([Se][Se]c2ccc(OCC)cc2)cc1
inactive: M14 > 100 µM | OVCAR-3 > 100 µM | RXF 393 35.5 µM | OVCAR-5 18.8 µM | HCT-116 56.1 µM | HCC 2998 > 100 µM | CAKI-1 21 µM | SK-MEL-28 > 100 µM | SNB-75 96.4 µM | UO-31 27.5 µM | EKVX > 100 µM | NCI-H460 > 100 µM

Cc1ccc(NC(=O)C(=O)Cc2nc3ccccc3o2)c(C)c1
inactive: HOP-62 > 100 µM | M14 > 100 µM | OVCAR-3 > 100 µM | LOX IMVI > 100 µM | RXF 393 > 100 µM | UACC-257 > 100 µM | OVCAR-5 > 100 µM | HCT-116 > 100 µM | HCC 2998 > 100 µM | CAKI-1 > 100 µM | K562 > 100 µM | SK-MEL-28 > 100 µM | SNB-75 > 100 µM | UO-31 > 100 µM | EKVX > 100 µM | NCI-H460 > 100 µM

COc1cc2c(cc1O)[C@H](C)C(c1ccccc1OC)O2 (stereo partly specified)
inactive: HL-60 2.6 µM | M14 3.45 µM | OVCAR-3 6.53 µM | LOX IMVI 4.67 µM | RXF 393 10.9 µM | UACC-257 18.2 µM | OVCAR-5 75.2 µM | HCT-116 3.86 µM | HCC 2998 12.1 µM | CAKI-1 5.98 µM | K562 2.81 µM | SK-MEL-28 6.41 µM | SNB-75 2.49 µM | UO-31 8.57 µM | EKVX 6.87 µM | NCI-H460 2.08 µM

O=C1CCC2CCc3cccc4oc1c2c34 (stereo unspecified)
inactive: HL-60 > 100 µM | HOP-62 > 100 µM | M14 > 100 µM | OVCAR-3 > 100 µM | LOX IMVI > 100 µM | RXF 393 > 100 µM | UACC-257 > 100 µM | HCT-116 > 100 µM | HCC 2998 > 100 µM | CAKI-1 > 100 µM | K562 > 100 µM | SK-MEL-28 > 100 µM | SNB-75 > 100 µM | EKVX 74.1 µM | NCI-H460 > 100 µM

O=[PH](O)c1ccsc1
inactive: HL-60 > 100 µM | HOP-62 > 100 µM | M14 > 100 µM | LOX IMVI > 100 µM | RXF 393 > 100 µM | HCT-116 > 100 µM | CAKI-1 52.1 µM | K562 > 100 µM | SK-MEL-28 > 100 µM | UO-31 > 100 µM | EKVX > 100 µM | NCI-H460 > 100 µM

COc1ccc(C=C2C(=O)OC(C)(C)OC2=O)cc1OC
inactive: HOP-62 > 100 µM | M14 > 100 µM | OVCAR-3 > 100 µM | UACC-257 > 100 µM | OVCAR-5 > 100 µM | HCC 2998 > 100 µM | CAKI-1 > 100 µM | K562 > 100 µM | SK-MEL-28 > 100 µM | SNB-75 80.7 µM | UO-31 > 100 µM | EKVX > 100 µM | NCI-H460 > 100 µM

COCCNC(=O)C1C(=O)C(=O)N(CCOC)C1=O (stereo unspecified)
inactive: HOP-62 > 100 µM | M14 > 100 µM | OVCAR-3 > 100 µM | LOX IMVI > 100 µM | RXF 393 > 100 µM | UACC-257 > 100 µM | OVCAR-5 > 100 µM | HCT-116 > 100 µM | HCC 2998 > 100 µM | CAKI-1 > 100 µM | K562 > 100 µM | SK-MEL-28 > 100 µM | SNB-75 > 100 µM | UO-31 > 100 µM | EKVX > 100 µM
